For series [1], the target named is T1, Neuromedin-K receptor (Homo sapiens, UniProt P29371).
T1 sequence (P29371 whole entry): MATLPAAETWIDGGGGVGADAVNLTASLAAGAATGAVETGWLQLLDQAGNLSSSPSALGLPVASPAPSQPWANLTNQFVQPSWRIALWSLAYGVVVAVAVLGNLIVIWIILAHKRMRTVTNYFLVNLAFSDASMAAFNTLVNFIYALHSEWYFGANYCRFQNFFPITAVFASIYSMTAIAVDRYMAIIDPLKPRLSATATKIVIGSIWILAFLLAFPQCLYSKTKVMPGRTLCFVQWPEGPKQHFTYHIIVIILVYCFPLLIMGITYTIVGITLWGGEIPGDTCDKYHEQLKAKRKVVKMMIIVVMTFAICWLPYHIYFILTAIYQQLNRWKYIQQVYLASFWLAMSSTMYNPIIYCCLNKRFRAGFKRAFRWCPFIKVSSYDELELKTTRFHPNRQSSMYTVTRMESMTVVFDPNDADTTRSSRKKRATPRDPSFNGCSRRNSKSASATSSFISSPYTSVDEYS
In words: Displacement of ([125I]His3-MePhe7)-NKB from NK3 receptor (unknown origin) expressed in CHO cells by scintillation counter. It is filed as cell-based.

Series [2] addresses T1, Neuromedin-K receptor. Put plainly: Agonist activity at human NK3 receptor expressed in CHO cells assessed as calcium influx relative to 100 nM senktide. Format: functional, cell-based.
Series [3] deals with Substance-P receptor (Homo sapiens, UniProt P25103). In words: Displacement of [125I]-BH-SP from NK1 receptor (unknown origin) expressed in CHO cells by scintillation counter. Format: cell-based. For orientation: In a radioligand displacement assay an active substance lowers the binding of a labelled ligand.
For series [4], the target named is T2, Substance-K receptor (Homo sapiens, UniProt P21452).
T2 sequence (P21452 whole entry): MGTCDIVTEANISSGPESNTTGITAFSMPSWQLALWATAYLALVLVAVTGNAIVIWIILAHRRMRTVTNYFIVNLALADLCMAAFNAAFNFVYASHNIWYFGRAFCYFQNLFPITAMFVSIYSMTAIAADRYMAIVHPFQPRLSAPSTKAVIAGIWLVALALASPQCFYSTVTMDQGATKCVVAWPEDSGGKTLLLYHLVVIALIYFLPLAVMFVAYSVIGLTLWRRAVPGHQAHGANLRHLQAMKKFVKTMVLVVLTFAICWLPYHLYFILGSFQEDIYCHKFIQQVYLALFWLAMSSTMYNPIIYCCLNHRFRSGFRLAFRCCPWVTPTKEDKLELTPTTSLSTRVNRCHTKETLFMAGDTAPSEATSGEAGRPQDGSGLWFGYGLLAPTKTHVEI
In words: Displacement of [125I]-NKA from NK2 receptor (unknown origin) expressed in CHO cells by scintillation counter. Format: cell-based.

The target of series [5] is T3, Neuromedin-K receptor (Homo sapiens) (UniProt P29371).
T3 sequence (whole entry): T1 sequence (P29371 whole entry)
In words: Potency index, ratio of IC50 for […] to IC50 for test compound for binding affinity to NK3 receptor (unknown origin).

The target of series [6] is T3, Neuromedin-K receptor (Homo sapiens). Put plainly: Potency index, ratio of EC50 for […] to EC50 for test compound for agonist activity at human NK3 receptor.
Series [7] is described as follows: Agonist activity at goat NK3 receptor expressed in CHO cells assessed as calcium influx relative to 100 nM senktide. It is filed as cell-based. The settings on record: Capra hircus.
Series [8] is described as follows: Agonist activity at cattle NK3 receptor expressed in CHO cells assessed as calcium influx relative to 100 nM senktide. It is filed as cell-based.
Series [9] relates to Serum. In words: Metabolic stability in rat serum by HPLC analysis. It is filed as ADME.
Series [10] is described as follows: Metabolic stability in goat serum by HPLC analysis. It is filed as ADME, Capra hircus.
Series [11] relates to Serum. Put plainly: Metabolic stability in cattle serum by HPLC analysis. It is filed as ADME, Bos taurus.
Series [12] can be described thus: Induction of periodic burst of multiple-unit activity volleys in OVX goat assessed as time duration of effect at 200 nmol, iv. Format: functional, Capra hircus.
Series [13] in a line: Induction of periodic burst of multiple-unit activity volleys in OVX goat assessed as number of ligand-induced multiple-unit activity volleys at 200 nmol, iv. It is filed as functional, Capra hircus.
Series [14] deals with T4, Neuromedin-K receptor (Rattus norvegicus, UniProt P16177).
T4 sequence (P16177 whole entry): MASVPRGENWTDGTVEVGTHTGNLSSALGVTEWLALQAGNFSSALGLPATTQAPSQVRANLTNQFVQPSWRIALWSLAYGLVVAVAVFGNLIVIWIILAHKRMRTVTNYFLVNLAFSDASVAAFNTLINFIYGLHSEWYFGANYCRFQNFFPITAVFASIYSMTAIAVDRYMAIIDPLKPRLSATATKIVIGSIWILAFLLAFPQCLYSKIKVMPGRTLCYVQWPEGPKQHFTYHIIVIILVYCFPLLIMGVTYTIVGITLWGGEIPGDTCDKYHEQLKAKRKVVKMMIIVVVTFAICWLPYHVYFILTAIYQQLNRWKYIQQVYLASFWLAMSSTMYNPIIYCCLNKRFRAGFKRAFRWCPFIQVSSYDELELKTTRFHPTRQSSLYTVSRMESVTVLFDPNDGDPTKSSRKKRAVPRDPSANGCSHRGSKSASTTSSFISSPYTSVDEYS
In words: Agonist activity at rat NK3 receptor expressed in CHO cells assessed as calcium influx relative to 100 nM senktide. It is filed as functional, cell-based.

Series [15] concerns the target Neprilysin (NEP 24.11) (Homo sapiens, UniProt P08473). Put plainly: Stability of compound assessed as NEP 24.11 (unknown origin)-mediated drug degradation after 24 hrs by HPLC analysis. It is filed as ADME. The settings on record: NEP 24.11 (neprilysin) enzyme.

Numbered stars: 1 amine (or outer) side, 2 acyl side, 3 side chain; on linkers, the order of the positions; unused ones are H or OH. Square brackets hold non-standard residues; d marks the D form. Peptide text beside a SMILES is read from it. NMeF = CN[C@@H](Cc1ccccc1)C(=O)O; Aad = N[C@@H](CCCC(=O)O)C(=O)O; Oxalyl = O=C(C(=O)[*:2])[*:1]

Substance-P receptor, sequence (P25103 whole entry): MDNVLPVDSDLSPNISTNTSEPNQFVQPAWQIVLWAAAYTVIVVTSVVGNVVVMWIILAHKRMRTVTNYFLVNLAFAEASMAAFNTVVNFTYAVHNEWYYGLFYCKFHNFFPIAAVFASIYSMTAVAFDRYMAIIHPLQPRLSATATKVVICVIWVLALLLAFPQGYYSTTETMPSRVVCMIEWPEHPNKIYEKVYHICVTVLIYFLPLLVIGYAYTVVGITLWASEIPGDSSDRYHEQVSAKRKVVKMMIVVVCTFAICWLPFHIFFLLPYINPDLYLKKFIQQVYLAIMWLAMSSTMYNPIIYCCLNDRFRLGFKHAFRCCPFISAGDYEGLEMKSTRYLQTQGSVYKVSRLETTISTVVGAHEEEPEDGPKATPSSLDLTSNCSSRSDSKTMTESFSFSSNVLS
Neprilysin (NEP 24.11), sequence (P08473 whole entry): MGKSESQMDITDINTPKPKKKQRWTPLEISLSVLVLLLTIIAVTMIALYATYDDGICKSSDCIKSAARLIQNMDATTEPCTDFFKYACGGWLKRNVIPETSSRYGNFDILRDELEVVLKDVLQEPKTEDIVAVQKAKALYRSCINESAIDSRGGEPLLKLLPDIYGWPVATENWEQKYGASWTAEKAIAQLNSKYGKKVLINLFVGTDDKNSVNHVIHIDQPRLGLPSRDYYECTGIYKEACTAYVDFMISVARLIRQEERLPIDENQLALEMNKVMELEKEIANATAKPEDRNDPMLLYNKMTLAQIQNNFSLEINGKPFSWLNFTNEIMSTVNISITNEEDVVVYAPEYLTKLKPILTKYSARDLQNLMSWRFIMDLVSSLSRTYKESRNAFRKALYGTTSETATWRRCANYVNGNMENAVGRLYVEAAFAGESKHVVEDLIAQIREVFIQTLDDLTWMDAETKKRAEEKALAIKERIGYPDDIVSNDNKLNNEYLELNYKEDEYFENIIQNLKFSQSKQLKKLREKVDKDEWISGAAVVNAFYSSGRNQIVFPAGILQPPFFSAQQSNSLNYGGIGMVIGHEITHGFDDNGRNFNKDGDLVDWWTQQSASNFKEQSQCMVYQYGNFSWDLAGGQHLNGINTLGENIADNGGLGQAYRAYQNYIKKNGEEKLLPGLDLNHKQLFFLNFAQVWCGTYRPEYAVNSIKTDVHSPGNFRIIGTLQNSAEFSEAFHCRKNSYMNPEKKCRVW

The IC50 is the midpoint of a concentration-inhibition curve. Usually EC50 stands for the concentration at which the effect is half-maximal. For the molecule `CSCC[C@H](NC(=O)[C@H](CC(C)C)NC(=O)CNC(=O)[C@H](Cc1ccccc1)N(C)C(=O)[C@H](Cc1ccccc1)NC(=O)[C@H](CCC(=O)O)NC(=O)[C@H](CC(=O)O)NC(C)=O)C(N)=O`, the IC50 was 7.7 nM in [1], > 10000 nM in series [3] and > 10000 nM in [4]. Besides, the EC50 in series [2] stood at 0.0081 nM. Moreover, the Ratio IC50 in series [5] was 5. In addition, the Ratio EC50 in series [6] was 3.
For `CSCC[C@H](NC(=O)[C@H](CC(C)C)NC(=O)CNC(=O)[C@H](Cc1ccccc1)N(C)C(=O)[C@H](Cc1ccccc1)NC(=O)[C@H](CC(=O)O)NC(=O)CCC(=O)O)C(N)=O` [SENKTIDE], the IC50 in series [4] is > 10000 nM. In addition, the EC50 is 0.019 nM in series [7] and 0.61 nM in series [8]. In addition, the Stability entry in series [9], in series [10] and in [11] was “Stable” each time. The Time in series [12] is given as 47.2 min. In addition, the Activity in series [13] was determined as 2.6.
Consider `CSCC[C@H](NC(=O)[C@H](CC(C)C)NC(=O)CNC(=O)[C@H](Cc1ccccc1)N(C)C(=O)[C@H](Cc1ccccc1)NC(=O)[C@H](CCC(=O)O)NC(=O)[C@@H](CC(=O)O)NC(C)=O)C(N)=O`, for which the IC50 in series [1] was 13 nM; in series [3], > 10000 nM; in series [4], > 10000 nM. The EC50 in [2] stood at 0.012 nM. The Ratio IC50 in [5] is 3. Moreover, the Ratio EC50 in series [6] was found to be 2.
Turning to `CSCC[C@H](NC(=O)[C@H](CC(C)C)NC(=O)CNC(=O)[C@H](Cc1ccccc1)N(C)C(=O)[C@H](Cc1ccccc1)NC(=O)[C@@H](CCC(=O)O)NC(=O)C(=O)O)C(N)=O`, the IC50 is 0.51 nM in [1], > 10000 nM in [3] and > 10000 nM in series [4]. Besides, the EC50 in series [2] amounted to 0.014 nM; in [14], 0.0099 nM; in series [7], 0.0094 nM; in [8] it was 0.152 nM. The Ratio EC50 in series [6] came out at 7. The Stability entry in series [9], in series [10] and in series [11] was “Stable” in each case. Besides, in series [12], the Time came out at 50.4 min. Further, in [13], the Activity came out at 2.7.
As to `CSCC[C@H](NC(=O)[C@H](CC(C)C)NC(=O)CNC(=O)[C@H](Cc1ccccc1)N(C)C(=O)[C@H](Cc1ccccc1)NC(=O)[C@H](CCCC(=O)O)NC(=O)C(=O)O)C(N)=O` (Oxalyl-[Aad]F[NMeF]GLM-NH2), the IC50 was 1.4 nM in series [1], > 10000 nM in series [3] and > 10000 nM in series [4]. Besides, the EC50 is 0.0074 nM in series [2], 0.0072 nM in series [14], 0.0093 nM in series [7] and 0.15 nM in series [8]. Besides, the metabolised at 24 h in series [15] was > 70%.
With `CSCC[C@H](NC(=O)[C@H](CC(C)C)NC(=O)CNC(=O)[C@H](Cc1ccccc1)N(C)C(=O)[C@H](Cc1ccccc1)NC(=O)[C@H](CCC(=O)O)NC(=O)C(=O)O)C(N)=O`, the IC50 in series [1] is 0.43 nM; in [3], > 10000 nM; in [4], > 10000 nM. The EC50 in series [2] stood at 0.0091 nM; in [14] it was 0.013 nM; in series [7], 0.012 nM; in [8] it was 0.169 nM. Besides, the Ratio EC50 in series [6] is 7. Moreover, the Stability entry in [9], in series [10] and in series [11] was “Stable” each time. Also, the metabolised at 24 h in series [15] was > 70%.
As to `CSCC[C@H](NC(=O)[C@H](CC(C)C)NC(=O)CNC(=O)[C@H](Cc1ccccc1)N(C)C(=O)[C@H](Cc1ccccc1)NC(=O)[C@@H](CC(=O)O)NC(=O)C(=O)O)C(N)=O`, the IC50 was 3.5 nM in [1], > 10000 nM in series [3] and > 10000 nM in series [4]. The EC50 in [2] was found to be 0.022 nM. The Ratio IC50 in series [5] amounted to 10.

(Values after ChEMBL document CHEMBL3734731 (Medchemcomm, 2015).)
